Experiment: gradient 5% acetonitrile 3 min, to 50% in 2 min, to 85% in 15 min, held 3 min, 100 µL/min
Settings: column: Zorbax Extend-C18 2.1 x 50 mm; eluents: water / acetonitrile, 0.1% formic acid
Method in brief: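 Standards, all pure, were combined into mixtures of ~100 molecules and run at 100 μL/min on a Zorbax Extend-C18 column (2.1 × 50 mm, 1.8 μm) with water and acetonitrile, each containing 0.1% formic acid. A coupled quadrupole time-of-flight mass spectrometer operated in positive and negative ionization mode. Retention time values come from computationally picked adduct peaks, each inspected manually.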

CCCCNC(=O)C1Cc2cc(S(=O)(=O)N3CCCCC3)ccc2N1C(C)=O (stereo unspecified)
RP-LC retention time: 806 s

COc1ccc2[nH]cc(CCNC(=O)CCc3c(C)nc4c(c3C)c(=O)n(C)c(=O)n4C)c2c1
RP-LC retention time: 788 s

O=C(NCc1ccco1)c1cccc2c1CCN2C(=O)c1ccc(F)cc1
RP-LC retention time: 836 s

Cc1cc(-n2c(C)nc3ccccc3c2=O)ccc1NC(=O)C(C)Oc1ccccc1 (stereo unspecified)
RP-LC retention time: 876 s

O=C(NC1CCCC1)C1c2ccccc2CC(=O)N1Cc1ccccc1 (stereo unspecified)
RP-LC retention time: 856 s

CCc1nnc2ccc(-c3noc(Cc4ccc(C)cc4)n3)cn12
RP-LC retention time: 918 s

CN(C)c1cccc(C(=O)NCc2nn(C)c3ccccc23)c1
RP-LC retention time: 709 s

Cc1cc(N2CCC(NC(=O)Nc3cccc(F)c3)C2=O)ccc1F (stereo unspecified)
RP-LC retention time: 882 s

COc1ccc(-c2cn3c(CCC(=O)NCc4ccco4)csc3n2)cc1
RP-LC retention time: 637 s

CCC(=O)NC(C)c1nc(-c2ccc(Cl)cc2)no1 (stereo unspecified)
RP-LC retention time: 823 s

COCCOC(=O)c1c(C)oc2ccc(OC(=O)C3CC3)cc12
RP-LC retention time: 941 s

Cc1ccc(C)c(-c2coc(-c3ccc(NC(=O)NCCc4ccccc4)cc3)n2)c1
RP-LC retention time: 1240 s

CCn1c(C)c(C(=O)CN(CC2CCCO2)C(=O)c2ccc(Cl)cc2)c(C)c1C(=O)OC (stereo unspecified)
RP-LC retention time: 978 s

CC1CCN(CCNC(=O)c2cccc3c2SCCC3=O)CC1
RP-LC retention time: 588 s

CCn1cc(C(=O)NCc2ccc(Br)cc2)c2cccnc21
RP-LC retention time: 836 s

COc1ccc(CCNC(=O)CN2C(=O)NC3(CCCCC3)C2=O)cc1OC
RP-LC retention time: 691 s

NC(=O)Cn1c(CCc2ccccc2)nc2ccccc21
RP-LC retention time: 581 s

O=C(Cc1ccc(Cl)cc1)NC1CCN(c2cc(-c3cccs3)[nH]n2)C1 (stereo unspecified)
RP-LC retention time: 749 s

O=C(Nc1ccccc1Cl)N1CCC(N2CCN(Cc3ccc(F)cc3)C(=O)C2=O)CC1
RP-LC retention time: 776 s

Cc1ccc(C(=O)NCC(=O)Nc2cc(-c3nc(C)cs3)sc2C)cc1
RP-LC retention time: 814 s

Cc1cc(NC(=O)C2CCCN(c3nnc4ccccn34)C2)ccc1F (stereo unspecified)
RP-LC retention time: 717 s

Cc1ccc(S(=O)(=O)Nc2ccc(-c3cn4ccc(C)nc4n3)cc2)cc1
RP-LC retention time: 646 s

Fc1ccc(OCc2nnc3sc(-c4ccccn4)nn23)cc1
RP-LC retention time: 846 s

Cc1ccc2c(c1)C(=O)NC1(CCN(C(=O)NCc3ccc(F)cc3)CC1)N2C
RP-LC retention time: 761 s

Cn1nc(C(=O)N2CCOCC2)c2c1CN(C(=O)Cc1ccsc1)C2
RP-LC retention time: 640 s

O=C(NCC1CCN(C(=O)c2cc3ccccc3o2)CC1)C(=O)NCC1CCCO1 (stereo unspecified)
RP-LC retention time: 691 s

Cc1c(-c2cccc(NC(=O)c3cc(Br)ccc3Cl)c2)nc2ncccn12
RP-LC retention time: 716 s

Cc1cc(C)cc(N2C(=O)CN(S(C)(=O)=O)CC2(C)C(=O)NCc2ccccc2)c1 (stereo unspecified)
RP-LC retention time: 851 s

COc1cccc(-c2ccc3nc(N4CCC(C(N)=O)CC4)sc3n2)c1
RP-LC retention time: 745 s

O=C(C1CCN(c2cnc3nccnc3c2)CC1)N1CCN(c2ccccn2)CC1
RP-LC retention time: 570 s

CCCNC(=O)C1CCN(c2ccc(SCC(=O)Nc3ccccc3C(=O)OC)nn2)CC1
RP-LC retention time: 666 s

CC(NC(=O)Cn1c(=O)c(=O)n(C)c2ncccc21)c1ccccc1 (stereo unspecified)
RP-LC retention time: 677 s

Cc1cc(C2CCCN2C(=O)Nc2cccc(Cl)c2C)on1 (stereo unspecified)
RP-LC retention time: 794 s

COc1ccc(C2Nc3ccccc3NC3=C2C(=O)CC(c2cccs2)C3)cc1OC (stereo unspecified)
RP-LC retention time: 730 s

CC(C)CN1CCN(S(=O)(=O)c2ccc(-c3nnc(C4CC4)o3)o2)CC1
RP-LC retention time: 637 s

Cc1ccc(NC(=O)CN2CCc3c(c(=O)c4cc(C)ccc4n3C)C2)cc1
RP-LC retention time: 649 s

COc1ccc(C(=O)N2[C@H]3CC[C@@H]2c2cnc(C)nc2C3)cn1
RP-LC retention time: 622 s

O=C(NCc1ccccc1Cl)C1CCN(C(=O)c2ncn3c2COC(c2ccccc2)C3)CC1 (stereo unspecified)
RP-LC retention time: 786 s

CCOc1ccccc1N1CCN(C(=O)CN2CCN(Cc3ccc(F)cc3)C2=O)CC1
RP-LC retention time: 833 s

CC(NC(=O)c1ccco1)c1nc(-c2ccc(-c3csc(-c4ccccc4)n3)cc2)no1 (stereo unspecified)
RP-LC retention time: 1200 s

COc1ncc(C(=O)Nc2ccc(F)c(F)c2)c(C)n1
RP-LC retention time: 795 s

Cc1ccc(S(=O)(=O)N2CC(=O)N(Cc3ccccc3)C(C)(C(=O)NCc3ccccc3)C2)cc1 (stereo unspecified)
RP-LC retention time: 1010 s

CC(C(=O)NCCc1cccs1)n1c2ccccc2c2cnn(C)c(=O)c21 (stereo unspecified)
RP-LC retention time: 855 s

O=C(CCC1CCN(S(=O)(=O)c2ccccc2)CC1)NCc1ccc(F)cc1
RP-LC retention time: 882 s

CCC(C(=O)NC1CC1)n1nc(C)c2c(C)n(-c3ccccc3)nc2c1=O (stereo unspecified)
RP-LC retention time: 735 s

COCCNC(=O)N1CCCN(C2=NS(=O)(=O)C(c3ccccc3)=C2C)CC1
RP-LC retention time: 676 s

CCCCC(=O)Nc1ccc2c(c1)nc(CN1CCN(C)CC1)n2C(C)C
RP-LC retention time: 575 s

CCCOc1nc2ccccc2nc1N1CCCC(C(=O)Nc2c(Cl)cc(OC)cc2OC)C1 (stereo unspecified)
RP-LC retention time: 1370 s

COc1ccc(C(=O)N2c3ccccc3NC3=C(C(=O)CCC3)C2c2ccco2)cc1 (stereo unspecified)
RP-LC retention time: 762 s

O=C(NCc1cccs1)C1CCN(S(=O)(=O)c2cc(-c3noc(C4CCC4)n3)cs2)CC1
RP-LC retention time: 1000 s

CCOc1ccc(-c2cc3n(n2)CCCN(C(C)=O)C3)cc1
RP-LC retention time: 637 s

CCOc1cc(C(=O)NCC(=O)Nc2nc3ccccc3[nH]2)cc(OCC)c1OCC
RP-LC retention time: 715 s

CCCS(=O)(=O)N1CC(=O)N(c2cccc(Cl)c2C)C(C)(C(=O)NC2CCCC2)C1 (stereo unspecified)
RP-LC retention time: 946 s

CCn1cc(CCNC(=O)NCC(=O)OC)c2cccnc21
RP-LC retention time: 574 s

COc1ccc(Nc2nc(N3CCN(c4ncccn4)CC3)nc3c2C(=O)CC(C)(C)C3)cc1
RP-LC retention time: 1250 s

Cn1c(=O)c(N2CCN(C(=O)c3cccc(F)c3)CC2)nc2ccccc21
RP-LC retention time: 864 s

CCC(Sc1nnc2c(n1)[nH]c1ccccc12)C(=O)Nc1nc(-c2ccccc2)cs1 (stereo unspecified)
RP-LC retention time: 1050 s

COc1ccc(-c2nnc(-c3ccccc3Cl)o2)cc1S(=O)(=O)N1CCCCC1
RP-LC retention time: 1060 s

CN(C)c1ncncc1N1CCC(C(=O)N2CCOCC2)CC1
RP-LC retention time: 567 s

Cc1ccc(NC(=O)N2CCC(N3CCN(Cc4ccccn4)C(=O)C3=O)CC2)cc1
RP-LC retention time: 604 s

CCCn1nnc2cc(-c3noc(C4CC(=O)N(c5ccc(C)c(C)c5)C4)n3)ccc21 (stereo unspecified)
RP-LC retention time: 1020 s

COC(=O)C1=C(C)NC2=C(C(=O)c3ccccc32)C1c1cccc(OC)c1 (stereo unspecified)
RP-LC retention time: 917 s

O=C(Cc1ccccc1Cl)N1CCN(c2nc(CN3CCOCC3)cs2)CC1
RP-LC retention time: 640 s

CCn1c(=O)c(N2CCN(C(=O)Nc3cccc(Br)c3)CC2)nc2ccccc21
RP-LC retention time: 1030 s

O=C(NC1CCCCC1)C1CCCN(c2ccc(=O)n(-c3ccc(F)cc3)n2)C1 (stereo unspecified)
RP-LC retention time: 804 s

O=C(Nc1ccccc1F)C1CCCN(S(=O)(=O)c2c[nH]c(C(=O)N3CCCCCC3)c2)C1 (stereo unspecified)
RP-LC retention time: 880 s

Source: the METLIN SMRT retention time set (Domingo-Almenara et al. 2019)
